From patent US20220105051A1, “COMPOUNDS FOR INCREASING MHC-I EXPRESSION AND MODULATING HISTONE DEACETYLASE ACTIVITY” (Cava Healthcare Inc., priority 2019, published 2022)
Entries after “also recorded” stand apart in the source; their conditions may differ. One block for each molecule: values may come before it.

Experiments:
Water solubility = format: physicochemical
MHC-I [1] = assay: MHC-I surface expression by flow cytometry; format: cell-based, murine; settings: A9 cells, 48 hours after treatment, flow cytometry
Method: A9 and TC-1 cell lines were trypsinized (0.05%, Gibco), washed twice with PBS (Gibco), and stained with allophycocyanin (APC) conjugated anti-mouse H-2K^b antibody (1:200, Biolegend) suspended in 150 μL of FACS buffer (PBS+2% FBS) for 20 minutes at 4° C. Cells were washed twice with PBS and re-suspended in 200 μL FACs buffer containing 1 μL of 7-aminoactinomycin (7AAD) viability stain (Biolegend). Flow cytometry was performed on the LSRII (BDBiosciences) and analysis was done using FlowJo (Flow cytometry Analysis Software).
The marine extract library was provided by Dr. Raymond J. Andersen (UBC). The marine invertebrate specimens were collected by SCUBA diving at a 40 metre depth from regions of high marine biodiversity in Papua New Guinea, Indonesia, Thailand, Sri Lanka, Dominica, Brazil, British Columbia, South Africa, and Norway 35. Previously curcuphenol was identified as the active component in one of the marine extracts showing induction of the APM, and since then two new generations of curcuphenol analogues were synthesized in the lab of Dr. Raymond Anderson. To evaluate the ability of these compounds to induce MHC-I surface expression, A9 cells were plated in 6 well plates at 10^5 cells/well and incubated for 24 hours at 37° C. in a 5% CO2 humidified atmosphere. After 24 hours the medium was removed and replaced with medium containing varying concentration of synthesized compounds (6.7 μg/mL, 20 μg/mL, 60 μg/mL). […] Following treatment, cells were incubated for 48 hours at 37° C. with 5% CO2 and humidified atmosphere. After incubation cells were subjected to flow cytometry.
Evaluation of MHC-I surface expression by flow cytometry. LMD:TAP-1 cells or A9 cells were plated in 6 well plates at a concentration of 10,000 cells per well in a 2 mL volume. The next day, cells were treated with the indicated concentrations of the compounds and incubated for 48 hours at 37° C. After incubation, the cells were trypsinized, washed and stained with APC-conjugated anti-mouse MHC-I (specifically anti-H-2K^b) antibody (Biolegend) and assessed by flow cytometry analysis.

CD4+ and CD8+ T cells = assay: Analysis of tumour-infiltrating lymphocytes; format: in vivo, C57BL/6 mice; settings: after 12 days of treatment, flow cytometry
Method: (§1) The metastatic cell line, A9, was grown in the DMEM, as previously described without, the addition of antibiotics (penicillin and streptomycin, P/S). Once cells reached 75-80% confluence, they were trypsinized (0.05%, Gibco) and washed with HBSS (Hanks balanced salt solution). The cells were counted using the Bio-RAD TC20 automated cell counter and suspended to a concentration of […] in HBSS. Thirty-two synergistic female C57BL/6 mice, between the ages 6-8 weeks, were subcutaneously injected in the right flank with 50 μL containing 5×10^4 A9 metastatic tumour cells. Seven days following tumour inoculation i.p. treatment began daily for 12 days. Four treatment groups were studied, with eight animals per group. […] Body weights were measured three times a week and once tumours developed they were measured with calipers and tumour volume was calculated. Twelve days after starting treatment, mice were euthanized and tumours were collected and weighed. The tumours were then processed for flow cytometry analysis. Tumours were cut into small pieces and incubated RPMI (Gibco; with P/S 0.5%, Sodium pyruvate 1%, and L-glutamine 1%) and 3 mg/mL collagenase A (Roche) for one hour at 37° C. with shaking. Dissociated tumour cells were passed through a 100 μm filter and spun down at 15,000×RCF for 3 minutes. The pellet was washed once in FACs buffer (2% FBS in PBS) and spun down. The pellet was next suspended in red blood cell (RBC) lysis buffer and kept at room temperature for 5 minutes before being neutralized by the addition of 5 ml of PBS and spun down. If pellets were still found to contain RBCs this step was repeated. Once all RBCs were removed cells were suspended in FACs buffer to a concentration of 10^7 cells/mL. A total volume of 200 ul of cells from each tumour were added to a 96 well plate (Falcon) and incubated with Fc Blocker (Biolegend, 1:400) for twenty minutes at 4° C. The 96 well plate was spun down at 1,200 rmp for three minutes and supernatant was removed. The cells were then suspended in 150 ul of FACs buffer containing anti-CD8a (PE-Cy7, 1:200, eBioscience) and CD4 (APC, 1:200, Biolegend) antibodies and incubated at 4° Celsius for 20 minutes. The cells were washed twice and spun down using FACs buffer before being to flow cytometry tubes in a final volume of 200 ul of FACs buffer containing 7AAD (Biolegend 1:200). Flow cytometry was performed on LSRII (BDBiosciences) and analysis was done using FlowJo (Flow cytometry Analysis Software).
Analysis of tumour-infiltrating lymphocytes (TILs). Tumour-infiltrating T lymphocyte (either CD4^+ or CD8^+ T cells) infiltration was evaluated in tumours of mice following 2-week treatment with either compounds or controls. Tumours at the site of initial injection were removed from tumour-bearing mice. Following tumour dissociation in the presence of collagenase A (Roche) and erythrocyte lysis, the tumour cells were then washed and prepared as single-cell suspensions to detect TILs. Before staining with antibodies, the cells were incubated with Fc Blocker (Ebiosciences) for 20 minutes at 4° C. The tumour cells were then washed and stained with anti-CD4-APC (Biolegend), anti-CD8-PECy7 (eBiosciences) and 7-AAD (Biolegend) viability stain. Using flow cytometry, 7-AAD positive dead cells were gated out and the remaining population was assessed for CD4^+ and CD8^+ expression. Data were acquired using a BD™ LSR II flow cytometer (BD Biosciences) with FACSDiva™ software and analyzed with FlowJo software (Treestar).

[2] = test system: A9 metastatic tumour cells; assay: In vivo tumour trial; parameters: species or system C57BL/6 mice; settings: daily i.p. for 12 days, P02-113 and P03-97-1 5.2 mg/kg, TSA 0.5 mg/kg
Method: as §1
Treatment of tumour-bearing mice with identified compounds. 5×10^4 A9 cells suspended in HBSS were subcutaneously (s.c.) transplanted into the right flank of 32 eight-week-old female C57BI/6 mice, as previously described 75. […] Body weight and tumours (once established) were measured every 2-4 days (more often as tumour size increased). Tumours were measured using calipers and volume was calculated as following: tumour volume=length×width^2. The tumour growth rate was assessed using methods previously described^28.

[3] = literature; cited from earlier work
MHC-I [4] = settings: earlier work of the lab; cited from earlier work
TAP-1 = assay: High-throughput cell-based screen for TAP-1 induction (EGFP under the TAP-1 promoter); parameters: species or system murine; settings: LMD:TAP-1 cells, 10 ng/mL
Excerpt: Identification of marine natural product extracts with the ability to promote up-regulation of TAP-1 and […] expression in cancer cells: A high-throughput cell-based screen was used for identification of candidate compounds that increase the expression of TAP-1 in the LMD murine metastatic prostate cell line. To assess the induction of TAP-1 expression we used the LMD:TAP-1 cell line, which was transfected with a vector containing EGFP under the TAP-1 promoter^44. The Cellomics™ Arrayscan VTI automated fluorescence imager was used to determine the cell numbers based on DNA staining and the average GFP fluorescence intensity which correlates to the levels of TAP-1 induction (FIG. 24A). […]
Cell-based screening assay. […] Image acquisition, segmentation and analysis of micro plates were carried out using the Cellomics™ Arrayscan V^TI automated fluorescence imager (Thermo Fisher Scientific). […] The target activation algorithm was used to identify the nuclei based on Hoechst fluorescence intensity, apply a cytoplasmic mask and quantitate GFP fluorescence intensity within the cytoplasmic mask area. Average GFP fluorescence intensity (intensity per cell per pixel) and total number of cells per well were determined. […]

- water solubility (Water solubility): water soluble
Molecule: Cc1ccc(CCCC(O)C(C)(C)O)c(O)c1 (stereo not shown) [P04-149]
- induction of MHC-I expression at the cell surface (MHC-I [1]): increases MHC-I expression

Molecule: CC(/C=C/C(=O)NO)=C\[C@@H](C)C(=O)c1ccc(N(C)C)cc1 [TSA, Trichostatin A, reference compound]
- CD4+ T cell infiltration of tumours (CD4+ and CD8+ T cells): no significant infiltration or difference; also recorded: did not appear to increase
- CD8+ T cell (CTL) infiltration of tumours (CD4+ and CD8+ T cells): greatest CD8+ infiltration; also recorded: increase in the CTL infiltration
- tumour volume / tumour growth compared to vehicle control ([2]; A9 tumours): reduced
- body weight [2]: remained stable; also recorded: no significant changes
- detection after 24 hours [3]: no detection
- half-life [3]: under ten
- restoring the MHC-I on A9 cells (MHC-I [4]): effective in restoring the MHC-I

B1: IFN-γ: known inducer of TAP-1 expression, positive control (protein, UniProt P01579 24-161, looked up)
Interferon gamma: QDPYVKEAENLKKYFNAGHSDVADNGTLFLGILKNWKEESDRKIMQSQIVSFYFKLFKNFKDDQSIQKSVETIKEDMNVKFFNSNKKKRDDFEKLTNYSVTDLNVQRKAIHELIQVMAELSPAAKTGKRKRSQMLFRG
- TAP promoter-induced GFP expression (TAP-1): high level of GFP expression
